Tests used:
Format in all cases: cell-based
[1] = system: Pseudomonas aeruginosa (ATCC 27853); experiment: Bactericidal efficacy, percent inactivation of P. aeruginosa; conditions: pH 7.0, 22° C., DFW
Experimental: The halogenated imidazolidin-4-one derivatives prepared as in examples 3, 5, and 6 (Compounds 1, 5, and 3, respectively) were tested as bactericides against the microorganisms Staphylococcus aureus (ATCC25923) and Pseudomonas aeruginosa (ATCC 27853) in demand-free water (DFW) as a function of pH and temperature and in a synthetic-demand water (SDW) at pH 9.5 and 4° C. The demand-free and synthetic-demand waters were prepared as described in examples 7 and 12, respectively.
For the bactericidal efficacy tests 50 milliliters of buffered DFW or SDW were placed in a 125 milliliter flask which was then inoculated with the organism to be tested such that the final density of the organism was about 1×10^6 cfu/ml (colony forming units per milliliter). The inoculated solution was allowed to equilibrate at the test temperature by immersion in a thermostated water bath for 15 minutes with constant stirring. Then an appropriate amount of an aqueous solution containing the test halogenated imidazolidin-4-one compound maintained at the same test temperature was added to the inoculated solution to bring the total concentration of potential positive halogen (Cl^+ or Cl^+ /Br^+) in the mixture to a predetermined level (10 parts per million and 5 parts per million Cl^+ from compounds 1 and 3; the molar equivalent in Cl^+ /Br^+ from Compound 5). 1 milliliter aliquots were removed from the test mixture at various predetermined times, and the active halogen was quenched by 1 milliliter portions of sterile 0.02 Normal sodium thiosulfate. Serial dilutions were made into sterile saline, and three 25 microliter aliquots of each of the resulting dilutions were applied to the dried surface of a Petri dish containing tryptic soy and nutrient agars for plating S. aureus and P. aeruginosa, respectively. After 48 hours at 37° C. the three replicates for each dilution were counted and averaged. This average was used to compute the cfu/ml for that particular aliquot. Inactivation of the organism was considered to be at least 99.9999 percent when no colonies were detected in the thiosulfate quenched aliquots.

[2] = Prevention of the growth of algae in water by Compound 1; conditions: algal aquarium, pH 6.8, start 6.14 mg per liter, read-out: Percent Total Potential Positive Chlorine Remaining
Experimental: (§1) Two 10 gallon aquariums were each filled with 35 liters of Bristol's solution at pH 6.8 as described in example 16. To aquarium A was added 6.14 milligrams per liter total potential positive chlorine from 0.638 grams of 1,3-dichloro-2,2,5,5-tetramethylimidazolidin-4-one (Compound 1) as prepared in example 1. Aquarium B was used as a control with no halogenated compound added. Then 5 milliliters of an inoculum containing the algae Oscillatoria lutea, Anabaena cylindrica, and Chlorella pyrenoidosa with an absorbance of 0.14 at 750 nanometers was added to each aquarium. Constant aeration and illumination as described in example 16 were provided throughout the experiment. The laboratory temperature varied between 21° and 24° C. during the course of the experiment. Both aquariums were sampled periodically such that the absorption at 750 nanometers could be measured with a Milton Roy Spectronic 301 spectrophotometer. Aquarium A was also sampled for total potential positive chlorine using standard iodometric titration.

[3] = system: Oscillatoria lutea, Anabaena cylindrica, and Chlorella pyrenoidosa; experiment: as above
Experimental: as §1

`CC1(C)C(=O)N(Cl)C(C)(C)N1Br` [Compound 5, 1-bromo-3-chloro-2,2,5,5-tetramethylimidazolidin-4-one] gave a killing at 5 ppm ([1]; ATCC27853, 5 min, 5 minutes) of over 100% and a killing at 5 ppm ([1]; ATCC27853, 10 min, 10 minutes) of over 100%.
For `CC1(C)C(=O)N(Cl)C(C)(C)N1Cl` [Compound 1, 1,3-dichloro-2,2,5,5-tetramethylimidazolidin-4-one], the killing at 5 ppm ([1]; ATCC27853, 5 min, 5 minutes) was over 100%, the killing at 5 ppm ([1]; ATCC27853, 10 min, 10 minutes) was over 100% and the remaining at 24 h ([2]; day 1) was 70.1%. The remaining at 96 h ([2]; day 4) was 53.4%, the remaining at 120 h ([2]; day 5) was 52.1% and the remaining at 144 h ([2]; day 6) was 51%. For the same molecule, the remaining at 168 h ([2]; day 7) was 49.5%, the remaining at 192 h ([2]; day 8) was 48.9% and the remaining at 264 h ([2]; day 11) was 45.8%. The remaining at 288 h ([2]; day 12) was 45.6%, the remaining at 312 h ([2]; day 13) was 44.8% and the remaining at 336 h ([2]; day 14) was 43.3%. The remaining at 360 h ([2]; day 15) was 44.8%, the remaining at 432 h ([2]; day 18) was 41.9% and the “green turbid tint (in words)” value ([3]; 6.14 mg per liter Cl+, 18 day experiment) was “did not develop such a color at any time during the 18 day experiment”. For the same molecule, the “A750 (Absorbance at 750 Nanometers)” value ([3]; 6.14 mg per liter Cl+, day 7) was 0.002, the “A750 (Absorbance at 750 Nanometers)” value ([3]; 6.14 mg per liter Cl+, day 11) was 0.0 and the “A750 (Absorbance at 750 Nanometers)” value ([3]; 6.14 mg per liter Cl+, day 12) was 0.001. For the same molecule, the “A750 (Absorbance at 750 Nanometers)” value ([3]; 6.14 mg per liter Cl+, day 13) was 0.0, the “A750 (Absorbance at 750 Nanometers)” value ([3]; 6.14 mg per liter Cl+, day 14) was 0.001 and the “A750 (Absorbance at 750 Nanometers)” value ([3]; 6.14 mg per liter Cl+, day 15) was 0.0. For the same molecule, the “A750 (Absorbance at 750 Nanometers)” value ([3]; 6.14 mg per liter Cl+, day 18) was 0.0, the “prevention of the growth of algae (in words)” value ([3]; as long as a measurable amount of the compound is present) was “effective at preventing the growth of algae in water” and the “Percent Total Potential Positive Chlorine Remaining” value ([3]; start 6.14 mg per liter, day 0) was 100.0%.

Reference: US5126057A, “Disinfecting with N,N'-dihaloimidazolidin-4-ones” (Auburn Research Foundation, priority 1991, dated 1992)
